Each block holds one molecule with its values, some of them ahead of it. Active and inactive are the calls of the source. The calls are words filed in the database; no cut-off is given here.
Experiments:
[1] = target: T1, DNA excision repair protein ERCC-1/DNA repair endonuclease XPF (Homo sapiens) (UniProt P07992+Q92889); assay: Inhibition of human His-tagged ERCC1-XPF expressed in Escherichia coli BL21 (DE3) cells using 6-FAM-5'CAGCGCTCGG(20T)CCGAGCGCTG-3'-dabcyl at 10 uM measured for 12 mins by fluorescence incision assay
[2] = tested on: HCT-116; assay: Cytotoxicity against human HCT-116 cells assessed as reduction in cell viability at >= 5 uM after 3 days; format: cell-based; conditions: hct-116, 72 h, time 3 day
[3] = tested on: HCT-116; assay: Antiproliferative activity against human UV-radiated HCT-116 cells assessed as sensitizing capacity by measuring reduction in cell survival at 2 uM by clonogenic survival assay; format: functional, cell-based
[4] = target: T2, DNA excision repair protein ERCC-1/DNA repair endonuclease XPF (Homo sapiens, UniProt P07992+Q92889); assay: Binding affinity to His-tagged human ERCC1-XPF expressed in Escherichia coli BL21 (DE3) cells by steady-state fluorescence assay
T2 sequence (P07992 whole entry): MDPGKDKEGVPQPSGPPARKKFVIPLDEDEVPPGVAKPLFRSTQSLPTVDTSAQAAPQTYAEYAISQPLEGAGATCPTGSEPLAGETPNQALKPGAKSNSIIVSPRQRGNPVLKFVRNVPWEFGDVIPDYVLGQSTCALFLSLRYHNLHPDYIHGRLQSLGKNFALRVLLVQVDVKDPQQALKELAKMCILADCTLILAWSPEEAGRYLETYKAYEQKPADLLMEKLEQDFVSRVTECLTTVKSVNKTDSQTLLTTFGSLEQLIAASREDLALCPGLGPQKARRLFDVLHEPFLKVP
T2 sequence (Q92889 whole entry): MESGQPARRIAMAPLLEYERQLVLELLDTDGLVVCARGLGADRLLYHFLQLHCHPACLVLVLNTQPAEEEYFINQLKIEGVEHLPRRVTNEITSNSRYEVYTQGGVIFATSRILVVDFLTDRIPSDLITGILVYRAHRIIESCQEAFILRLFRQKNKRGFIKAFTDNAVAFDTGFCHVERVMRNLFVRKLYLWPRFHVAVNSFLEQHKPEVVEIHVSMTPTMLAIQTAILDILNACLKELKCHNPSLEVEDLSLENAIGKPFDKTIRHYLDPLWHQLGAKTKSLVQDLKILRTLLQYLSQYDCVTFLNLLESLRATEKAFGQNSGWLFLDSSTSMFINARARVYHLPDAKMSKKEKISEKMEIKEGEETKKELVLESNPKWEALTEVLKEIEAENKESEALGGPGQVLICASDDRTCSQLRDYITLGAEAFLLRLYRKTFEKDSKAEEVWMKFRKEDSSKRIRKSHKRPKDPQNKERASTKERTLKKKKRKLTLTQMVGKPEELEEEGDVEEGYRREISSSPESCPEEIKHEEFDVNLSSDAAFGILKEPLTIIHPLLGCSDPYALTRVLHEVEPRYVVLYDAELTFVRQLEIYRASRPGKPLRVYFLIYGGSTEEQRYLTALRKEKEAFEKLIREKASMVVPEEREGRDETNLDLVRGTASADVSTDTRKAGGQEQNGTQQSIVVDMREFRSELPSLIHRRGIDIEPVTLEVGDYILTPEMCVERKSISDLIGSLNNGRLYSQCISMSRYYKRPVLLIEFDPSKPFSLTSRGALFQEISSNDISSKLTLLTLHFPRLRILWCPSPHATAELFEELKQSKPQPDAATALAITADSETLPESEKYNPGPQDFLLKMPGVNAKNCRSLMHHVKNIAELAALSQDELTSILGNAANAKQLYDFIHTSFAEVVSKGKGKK

[5] = Cytotoxicity against human HCT-116 cells assessed as cell viability at 5 uM after 3 days relative to control; format: cell-based; conditions: time 3 day, read-out: Activity
[6] = tested on: HCT-116; assay: Antiproliferative activity against human HCT-116 cells assessed as sensitizing capacity by measuring reduction in cell survival at 4 uM in presence of cyclophosphamide by clonogenic survival assay; format: functional, cell-based
[7] = Binding affinity to 6-FAM-5'CAGCGCTCGG(20T)CCGAGCGCTG-3'-dabcyl (unknown origin) measured for 12 mins by fluorescence incision assay
[8] = tested on: HCT-116; assay: Cytotoxicity against human HCT-116 cells assessed as reduction in cell viability at 5 to 20 uM after 3 days; format: cell-based; conditions: hct-116, 72 h, dose 5-20 µM, time 3 day
[9] = target: T1, DNA excision repair protein ERCC-1/DNA repair endonuclease XPF (Homo sapiens); assay: Binding affinity to His-tagged human ERCC1-XPF expressed in Escherichia coli BL21 (DE3) cells at 4 uM by steady-state fluorescence assay relative to control
[10] = tested on: HCT-116; assay: Antiproliferative activity against human UV-radiated HCT-116 cells assessed as sensitizing capacity by measuring reduction in cell survival at 2 to 4 uM by clonogenic survival assay; format: functional, cell-based; conditions: dose 2-4 µM
[11] = tested on: HCT-116; assay: Antiproliferative activity against human HCT-116 cells assessed as sensitizing capacity by measuring reduction in cell survival at 2 uM in presence of cyclophosphamide by clonogenic survival assay; format: functional, cell-based
[12] = target: T2, DNA excision repair protein ERCC-1/DNA repair endonuclease XPF; assay: Inhibition of human His-tagged human ERCC1-XPF expressed in Escherichia coli BL21 (DE3) cells using 6-FAM-5'CAGCGCTCGG(20T)CCGAGCGCTG-3'-dabcyl measured for 12 mins by fluorescence incision assay
[13] = target: T1, DNA excision repair protein ERCC-1/DNA repair endonuclease XPF (Homo sapiens); assay: Inhibition of ERCC1-XPF in UV-radiated human HCT-116 cells assessed as cyclobutane pyrimidine dimer DNA repair at 2 uM preincubated for 1 hr followed by 8 J/m2 UV-C radiation and measured up to 24 hrs by IgG-Alexafluor antibody based fluorescent microscopic analysis (reference value: 16%); format: cell-based; design: scale not given: the % may be the effect or the level left; conditions: time hrs <=25
[14] = tested on: HCT-116; assay: Cytotoxicity against human HCT-116 cells assessed as reduction in cell viability at 2 uM after 3 days relative to control; format: cell-based; conditions: hct-116, 72 h, time 3 day

inhibition [1]: Active
SMILES: CN1CCN(Cc2cc(Nc3c4ccc(Cl)cc4nc4ccc(O)cc34)ccc2O)CC1

inhibition [1]: Active
SMILES: COc1ccc2c(Nc3ccc(O)c(CN4CCN(CCN(C)C)CC4)c3)ccnc2c1

inhibition [1]: Active
Kd [4]: 140 nM
SMILES: COc1ccc2nc3cc(Cl)ccc3c(Nc3ccc(O)c(CN4CCN(C)CC4)c3)c2c1
Activity [2]: Toxic
Activity [3]: Active
viability at 72 h, 5 µM [5]: 35%

inhibition [1]: Active
SMILES: COc1cc(C#N)c(Nc2c3ccc(Cl)cc3nc3ccc(O)cc23)cc1OC

inhibition [1]: Active
SMILES: COc1ccc2c(Nc3ccc(O)c(CN(C)C)c3)ccnc2c1

inhibition [1]: inactive
SMILES: COc1ccc2nc3cc(Cl)ccc3c(Cl)c2c1

inhibition [1]: inactive
SMILES: COc1ccc2c(Cl)ccnc2c1

inhibition [1]: inactive
SMILES: CN1CCN(Cc2cc(N)ccc2O)CC1

inhibition [1]: Active
Activity [9]: < 2%
SMILES: CN1CCN(Cc2cc(Nc3c4ccc(Cl)cc4nc4ccc(OCc5ccccc5)cc34)ccc2O)CC1
Activity [6]: inactive
Kd [7]: 200 nM
Activity [8]: Non-Toxic

inhibition [1]: inactive
SMILES: COc1ccc2c(Nc3ccc(O)cc3)ccnc2c1

inhibition [1]: Active
Activity [9]: 25%
IC50 [12]: 490 nM
Kd [4]: 85 nM
Activity [13]: 35%
SMILES: CN(C)CCN1CCN(Cc2cc(Nc3c4ccc(Cl)cc4nc4ccc(O)cc34)ccc2O)CC1
Activity [10]: Active
Kd [7]: 1050 nM
Activity [11]: Active
Activity [14]: 95%

inhibition [1]: Active
SMILES: Oc1ccc2nc3cc(Cl)ccc3c(Cl)c2c1
